According to patent publication US12617797B2, “Substituted pyrazolo [1,5-a]pyrimidines having multimodal activity against pain” (ESTEVE PHARMACEUTICALS, S.A., priority 2020, dated 2026):
pKi: −log10 of the molar value.

How the values were obtained:
[1] = target: Human α2δ-1 subunit of Cav2.2 calcium channel (Homo sapiens, UniProt P54289); assay: Human α2δ-1 subunit of Cav2.2 calcium channel assay ([3H]-gabapentin binding); conditions: binding to the α2δ-1 subunit of voltage-gated calcium channels expressed as Ki; + also covers inhibition between 1% and 50%
Human α2δ-1 subunit of Cav2.2 calcium channel, sequence (P54289 25-1103): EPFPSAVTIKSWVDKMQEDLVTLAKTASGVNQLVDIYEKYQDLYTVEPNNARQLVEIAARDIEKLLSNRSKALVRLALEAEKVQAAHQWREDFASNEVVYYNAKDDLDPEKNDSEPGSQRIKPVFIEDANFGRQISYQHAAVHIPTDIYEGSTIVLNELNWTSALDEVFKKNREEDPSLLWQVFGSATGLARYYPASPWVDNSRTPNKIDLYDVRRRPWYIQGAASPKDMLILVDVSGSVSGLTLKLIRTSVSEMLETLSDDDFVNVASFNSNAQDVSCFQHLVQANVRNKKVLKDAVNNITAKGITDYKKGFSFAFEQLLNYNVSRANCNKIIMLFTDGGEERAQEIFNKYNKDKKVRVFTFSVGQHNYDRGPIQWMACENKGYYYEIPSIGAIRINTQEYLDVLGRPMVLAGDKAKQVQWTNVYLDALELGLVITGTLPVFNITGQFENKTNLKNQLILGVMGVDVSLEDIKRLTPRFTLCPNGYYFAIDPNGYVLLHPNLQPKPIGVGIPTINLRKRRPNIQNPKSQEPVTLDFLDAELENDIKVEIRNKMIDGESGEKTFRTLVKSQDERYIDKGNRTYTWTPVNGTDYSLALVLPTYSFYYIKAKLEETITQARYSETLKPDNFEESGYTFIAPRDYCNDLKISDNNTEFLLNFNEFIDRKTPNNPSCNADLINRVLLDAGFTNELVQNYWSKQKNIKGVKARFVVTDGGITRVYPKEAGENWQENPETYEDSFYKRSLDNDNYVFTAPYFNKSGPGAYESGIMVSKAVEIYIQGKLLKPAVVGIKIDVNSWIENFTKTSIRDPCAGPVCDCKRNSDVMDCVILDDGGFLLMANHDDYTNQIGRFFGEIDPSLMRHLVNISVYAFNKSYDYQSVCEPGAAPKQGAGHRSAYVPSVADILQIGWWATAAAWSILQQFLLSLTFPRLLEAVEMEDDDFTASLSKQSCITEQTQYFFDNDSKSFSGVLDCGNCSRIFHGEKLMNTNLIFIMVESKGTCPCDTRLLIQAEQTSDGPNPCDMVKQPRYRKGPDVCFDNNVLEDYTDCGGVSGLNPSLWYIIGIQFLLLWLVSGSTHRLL
Summary of the method: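 Displacement of 15 nM [3H]-gabapentin from human α2δ-1-enriched membranes (Hepes-KOH 10 mM, pH 7.4; 27 °C, 60 min) read by filter binding and radioactivity counting. Values are single-point % inhibition (1 or 10 μM) or five-point Ki; 10 μM pregabalin sets NSB.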

[2] = target: T1, Human σ1 receptor (Homo sapiens, UniProt Q99720); assay: Human σ1 receptor radioligand assay ([3H](+)-pentazocine binding, transfected HEK-293 membranes); conditions: binding to σ1 receptor expressed as Ki; + also covers inhibition between 1% and 50%; read-out: σ-1 binding
T1 construct: expressed in transfected cells; host or cells: HEK-293
T1 sequence (Q99720 whole entry): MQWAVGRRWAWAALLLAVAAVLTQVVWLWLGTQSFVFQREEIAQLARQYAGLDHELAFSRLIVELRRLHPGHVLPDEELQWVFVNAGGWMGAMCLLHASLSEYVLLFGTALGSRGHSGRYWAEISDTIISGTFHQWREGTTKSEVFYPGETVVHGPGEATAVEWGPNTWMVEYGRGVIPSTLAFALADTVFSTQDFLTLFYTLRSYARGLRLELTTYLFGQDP
Summary of the method: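 Ki was derived from five test concentrations, or % inhibition was measured at a single 1 or 10 μM dose, against 5 nM [3H](+)-pentazocine. Incubation was 120 min at 37° C in 50 mM Tris-HCl pH 8 with 7 μg HEK-293 membranes, and 10 μM haloperidol set non-specific binding. Bound radioactivity was counted after filtration.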

pKi [1]	pKi [2]	SMILES
5.30 to 6.30	6.00 to 6.30	Cc1nn2c(C3CCCN(Cc4ccccc4)C3)ccnc2c1CNCC1C[C@@H](C)O[C@@H](C)C1 (stereo partly drawn) [Example 220, 1-(7-(1-Benzylpiperidin-3-yl)-2-methylpyrazolo[1,5-a]pyrimidin-3-yl)-N-(((2R,6S)-2,6-dimethyltetrahydro-2H-pyran-4-yl)methyl)methanamine]
5.30 to 6.30	> 6.30	Cc1nn2c([C@H]3CCCN(Cc4ccc(Cl)cc4)C3)ccnc2c1CN[C@H](C)C1CCOCC1 [Example 226, (R)—N-((7-((S)-1-(4-chlorobenzyl)piperidin-3-yl)-2-methylpyrazolo[1,5-a]pyrimidin-3-yl)methyl)-1-(tetrahydro-2H-pyran-4-yl)ethan-1-amine]
< 5.30	> 6.30	Cc1nn2c([C@@H]3CCCN(Cc4ccc(Cl)cc4)C3)ccnc2c1CN(C)CC1CC1 [Example 227, (R)-1-(7-(1-(4-Chlorobenzyl)piperidin-3-yl)-2-methylpyrazolo[1,5-a]pyrimidin-3-yl)-N-(cyclopropylmethyl)-N-methylmethanamine]
< 5.30	> 6.30	Cc1nn2c(C3CCCN(Cc4ccc(Cl)cc4)C3)ccnc2c1CN(CC1CCOCC1)C(C)C (stereo not shown) [Example 232, N-((7-(1-(4-Chlorobenzyl)piperidin-3-yl)-2-methylpyrazolo[1,5-a]pyrimidin-3-yl)methyl)-N-((tetrahydro-2H-pyran-4-yl)methyl)propan-2-amine]
< 5.30	6.00 to 6.30	Cc1nn2c(C3CCCN(Cc4ccccc4)C3)ccnc2c1CN(CC1C[C@@H](C)O[C@@H](C)C1)C(C)C (stereo partly drawn) [Example 233, N-((7-(1-Benzylpiperidin-3-yl)-2-methylpyrazolo[1,5-a]pyrimidin-3-yl)methyl)-N-(((2R,6S)-2,6-dimethyltetrahydro-2H-pyran-4-yl)methyl)propan-2-amine]
5.30 to 6.30	> 6.30	Cc1nn2c(C3CCCN(Cc4ccccc4)C3)ccnc2c1CN(C)CC1CC1 (stereo not shown) [Example 234, 1-(7-(1-Benzylpiperidin-3-yl)-2-methylpyrazolo[1,5-a]pyrimidin-3-yl)-N-(cyclopropylmethyl)-N-methylmethanamine]
< 5.30	6.00 to 6.30	Cc1nn2c(C3CCCN(Cc4ccc(Cl)cc4)C3)ccnc2c1CN(CC1CCOCC1)CC(F)(F)F (stereo not shown) [Example 235, N-((7-(1-(4-Chlorobenzyl)piperidin-3-yl)-2-methylpyrazolo[1,5-a]pyrimidin-3-yl)methyl)-2,2,2-trifluoro-N-((tetrahydro-2H-pyran-4-yl)methyl)ethan-1-amine]
5.30 to 6.30	> 6.30	Cc1nn2c(C3CCCN(Cc4ccc(Cl)cc4)C3)ccnc2c1CCN(C)C (stereo not shown) [Example 236, 2-(7-(1-(4-Chlorobenzyl)piperidin-3-yl)-2-methylpyrazolo[1,5-a]pyrimidin-3-yl)-N,N-dimethylethan-1-amine]
5.30 to 6.30	> 6.30	Cc1cc(C2CCCN(Cc3ccc(Cl)cc3)C2)n2nc(C)c(CNCC3CCOCC3)c2n1 (stereo not shown) [Example 238, 1-(7-(1-(4-Chlorobenzyl)piperidin-3-yl)-2,5-dimethylpyrazolo[1,5-a]pyrimidin-3-yl)-N-((tetrahydro-2H-pyran-4-yl)methyl)methanamine]
< 5.30	> 6.30	Cc1nn2c([C@H]3CCCN(Cc4ccccc4F)C3)ccnc2c1CNCC1CCOCC1 [Example 239, (S)-1-(7-(1-(2-Fluorobenzyl)piperidin-3-yl)-2-methylpyrazolo[1,5-a]pyrimidin-3-yl)-N-((tetrahydro-2H-pyran-4-yl)methyl)methanamine]
5.30 to 6.30	> 6.30	Cc1nn2c([C@H]3CCCN(Cc4ccc(F)cc4F)C3)ccnc2c1CNCC1CCOCC1 [Example 240, (S)-1-(7-(1-(2,4-Difluorobenzyl)piperidin-3-yl)-2-methylpyrazolo[1,5-a]pyrimidin-3-yl)-N-((tetrahydro-2H-pyran-4-yl)methyl)methanamine]
< 5.30	> 6.30	COc1ccc(CN2CCCC(c3ccnc4c(CNCC5CCOCC5)c(C)nn34)C2)cc1 (stereo not shown) [Example 242, 1-(7-(1-(4-Methoxybenzyl)piperidin-3-yl)-2-methylpyrazolo[1,5-a]pyrimidin-3-yl)-N-((tetrahydro-2H-pyran-4-yl)methyl)methanamine]
5.30 to 6.30	< 6.00	Cc1nn2c([C@H]3CCCN(Cc4ccccc4)C3)ccnc2c1CNC[C@H]1CCN(C)C(=O)C1 [Example 244, (S)-4-((((7-((S)-1-Benzylpiperidin-3-yl)-2-methylpyrazolo[1,5-a]pyrimidin-3-yl)methyl)amino)methyl)-1-methylpiperidin-2-one]
5.30 to 6.30	< 6.00	Cc1nn2c([C@H]3CCCN(Cc4ccccc4)C3)ccnc2c1CNC[C@H]1CCC(=O)NC1 [Example 245, (R)-5-((((7-((S)-1-Benzylpiperidin-3-yl)-2-methylpyrazolo[1,5-a]pyrimidin-3-yl)methyl)amino)methyl)piperidin-2-one]
> 6.30	> 6.30	CC(=O)N1CCC(CNCc2c(C)nn3c([C@H]4CCCN(Cc5ccc(F)c(F)c5)C4)ccnc23)CC1 [Example 247, (S)-1-(4-((((7-(1-(3,4-Difluorobenzyl)piperidin-3-yl)-2-methylpyrazolo[1,5-a]pyrimidin-3-yl)methyl)amino)methyl)piperidin-1-yl)ethan-1-one]
5.30 to 6.30	6.00 to 6.30	COc1nn2c(C3CCCN(Cc4ccccc4)C3)ccnc2c1CNCC1CCOCC1 (stereo not shown) [Example 248, 1-(7-(1-Benzylpiperidin-3-yl)-2-methoxypyrazolo[1,5-a]pyrimidin-3-yl)-N-((tetrahydro-2H-pyran-4-yl)methyl)methanamine]

The next lines start with the compound.

SMILES	pKi [1]	pKi [2]
Cc1nn2c([C@@H]3CCCN(Cc4ccc(Cl)cc4)C3)ccnc2c1CNC[C@H]1CCOC(C)(C)C1 [Example 222]	< 5.30	> 6.30
Cc1nn2c([C@H]3CCCN(Cc4ccc(Cl)cc4)C3)ccnc2c1CNC[C@@H]1CCOC(C)(C)C1 [Example 223]	< 5.30	> 6.30
Cc1nn2c([C@@H]3CCCN(Cc4ccc(Cl)cc4)C3)ccnc2c1CN[C@@H](C)C1CCOCC1 [Example 225, (S)—N-((7-((R)-1-(4-chlorobenzyl)piperidin-3-yl)-2-methylpyrazolo[1,5-a]pyrimidin-3-yl)methyl)-1-(tetrahydro-2H-pyran-4-yl)ethan-1-amine]	< 5.30	> 6.30
Cc1nn2c([C@H]3CCCN(Cc4ccc(Cl)cc4)C3)ccnc2c1CN(C)CC1CC1 [Example 228, (S)-1-(7-(1-(4-chlorobenzyl)piperidin-3-yl)-2-methylpyrazolo[1,5-a]pyrimidin-3-yl)-N-(cyclopropylmethyl)-N-methylmethanamine]	> 6.30	> 6.30
Cc1nn2c(C3CCCN(Cc4ccc(Cl)cc4)C3)ccnc2c1CN(C)Cc1c(F)cccc1F (stereo not shown) [Example 229, 1-(7-(1-(4-Chlorobenzyl)piperidin-3-yl)-2-methylpyrazolo[1,5-a]pyrimidin-3-yl)-N-(2,6-difluorobenzyl)-N-methylmethanamine]	5.30 to 6.30	6.00 to 6.30
Cc1nn2c(C3CCCN(Cc4ccc(Cl)cc4)C3)ccnc2c1CN(C)Cc1ccc(CO)cc1 (stereo not shown) [Example 230, (4-((((7-(1-(4-Chlorobenzyl)piperidin-3-yl)-2-methylpyrazolo[1,5-a]pyrimidin-3-yl)methyl)(methyl)amino)methyl)phenyl)methanol]	5.30 to 6.30	> 6.30
Cc1nn2c(C3CCCN(Cc4ccc(Cl)cc4)C3)ccnc2c1CN(C)CC1CCOCC1 (stereo not shown) [Example 231, 1-(7-(1-(4-Chlorobenzyl)piperidin-3-yl)-2-methylpyrazolo[1,5-a]pyrimidin-3-yl)-N-methyl-N-((tetrahydro-2H-pyran-4-yl)methyl)methanamine]	5.30 to 6.30	> 6.30
Cc1cnc2c(CNCC3CCOCC3)c(C)nn2c1C1CCCN(Cc2ccc(Cl)cc2)C1 (stereo not shown) [Example 237, 1-(7-(1-(4-Chlorobenzyl)piperidin-3-yl)-2,6-dimethylpyrazolo[1,5-a]pyrimidin-3-yl)-N-((tetrahydro-2H-pyran-4-yl)methyl)methanamine]	> 6.30	> 6.30
Cc1nn2c([C@H]3CCCN(Cc4cc(F)cc(F)c4)C3)ccnc2c1CNCC1CCOCC1 [Example 241, (S)-1-(7-(1-(3,5-Difluorobenzyl)piperidin-3-yl)-2-methylpyrazolo[1,5-a]pyrimidin-3-yl)-N-((tetrahydro-2H-pyran-4-yl)methyl)methanamine]	< 5.30	> 6.30
Cc1nn2c([C@H]3CCCN(Cc4ccccc4)C3)ccnc2c1CNC[C@@H]1CCN(C)C(=O)C1 [Example 243, (R)-4-((((7-((S)-1-Benzylpiperidin-3-yl)-2-methylpyrazolo[1,5-a]pyrimidin-3-yl)methyl)amino)methyl)-1-methylpiperidin-2-one]	5.30 to 6.30	< 6.00
Cc1nn2c([C@H]3CCCN(Cc4ccccc4)C3)ccnc2c1CNC[C@@H]1CCC(=O)NC1 [Example 246, (S)-5-((((7-((S)-1-Benzylpiperidin-3-yl)-2-methylpyrazolo[1,5-a]pyrimidin-3-yl)methyl)amino)methyl)piperidin-2-one]	5.30 to 6.30	< 6.00
Cc1nn2c(CC3CCCN(Cc4ccc(Cl)cc4)C3)ccnc2c1-c1ccncc1 (stereo not shown) [Example 249, 7-((1-(4-Chlorobenzyl)piperidin-3-yl)methyl)-2-methyl-3-(pyridin-4-yl)pyrazolo[1,5-a]pyrimidine]	< 5.30	> 6.30
Cc1nn2c(CC3CCCN(Cc4cccc(Cl)c4)C3)ccnc2c1-c1ccncc1 (stereo not shown) [Example 250]	< 5.30	6.00 to 6.30
